Assay results as given in patent publication US20260028328A1, “HETEROARYL DERIVATIVES AS DDRs INHIBITORS” (CHIESI FARMACEUTICI S.P.A., priority 2022, published 2026).

Tests used:
DDR2 = DDR2 (Homo sapiens (Human), UniProt Q16832); assay: DDR2 binding assay (LanthaScreen Europium Kinase Binding assay); conditions: 5 nM DDR2, 10 nM Kinase Tracer 178, 1 h at rt; Ki from IC50 by Cheng-Prusoff; read-out: Ki DDR2
Method: (§1) DDR1 and DDR2 binding assays were performed using Life Technologies LanthaScreen™ Europium Kinase Binding assay. The compounds were incubated with 5 nM DDR1 (Carna Biosciences) or 5 nM DDR2 (Life Technologies) for 1 h at rt in white 384-well OptiPlate (PerkinElmer), containing 20 nM or 10 nM Kinase Tracer 178 respectively and 2 nM Europium labelled anti-GST antibody (Life Technologies) in assay buffer (50 mM HEPES pH 7.5, 10 mM MgCI2, 1 mM EGTA and 0.01% BRIJ35). The ratio of fluorescence emission 665 nm/615 nm after excitation at 340 nm was obtained using the Tecan Spark 20M plate reader. IC50 values were determined in GraphPad Prism 7.0 software, using 4 parameter model: log(inhibitor) vs. response. IC50 values were converted in Ki using the Cheng-Prusoff equation (Ki=IC50/(1+[Tracer]/Kd).

DDR1 = DDR1 (Homo sapiens (Human), UniProt Q08345); assay: DDR1 binding assay (LanthaScreen Europium Kinase Binding assay); conditions: 5 nM DDR1, 20 nM Kinase Tracer 178, 1 h at rt; Ki from IC50 by Cheng-Prusoff; read-out: Ki DDR1
Method: as §1

Chain of DDR2 (Q16832 22-855): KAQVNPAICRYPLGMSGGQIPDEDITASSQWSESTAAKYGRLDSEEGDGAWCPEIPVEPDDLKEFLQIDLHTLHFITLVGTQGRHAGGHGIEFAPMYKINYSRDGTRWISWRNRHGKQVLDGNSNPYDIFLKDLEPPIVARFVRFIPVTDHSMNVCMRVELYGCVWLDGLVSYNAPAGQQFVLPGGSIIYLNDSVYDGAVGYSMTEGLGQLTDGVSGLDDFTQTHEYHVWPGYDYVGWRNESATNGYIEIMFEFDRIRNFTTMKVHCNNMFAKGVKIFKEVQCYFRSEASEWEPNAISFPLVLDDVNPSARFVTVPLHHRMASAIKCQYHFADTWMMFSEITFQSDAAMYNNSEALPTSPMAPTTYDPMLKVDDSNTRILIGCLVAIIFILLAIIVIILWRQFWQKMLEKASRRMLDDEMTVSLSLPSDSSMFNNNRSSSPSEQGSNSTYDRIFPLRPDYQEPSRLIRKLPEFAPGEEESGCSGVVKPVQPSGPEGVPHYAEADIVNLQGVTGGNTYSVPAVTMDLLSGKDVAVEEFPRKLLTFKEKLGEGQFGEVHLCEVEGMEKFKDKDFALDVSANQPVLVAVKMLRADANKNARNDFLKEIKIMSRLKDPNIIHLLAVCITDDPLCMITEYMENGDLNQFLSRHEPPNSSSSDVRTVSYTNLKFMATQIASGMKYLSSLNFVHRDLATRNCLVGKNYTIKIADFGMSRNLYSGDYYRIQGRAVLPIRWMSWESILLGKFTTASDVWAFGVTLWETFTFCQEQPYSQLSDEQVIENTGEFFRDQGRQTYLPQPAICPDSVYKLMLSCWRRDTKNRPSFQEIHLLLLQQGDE
Chain of DDR1 (Q08345 19-913): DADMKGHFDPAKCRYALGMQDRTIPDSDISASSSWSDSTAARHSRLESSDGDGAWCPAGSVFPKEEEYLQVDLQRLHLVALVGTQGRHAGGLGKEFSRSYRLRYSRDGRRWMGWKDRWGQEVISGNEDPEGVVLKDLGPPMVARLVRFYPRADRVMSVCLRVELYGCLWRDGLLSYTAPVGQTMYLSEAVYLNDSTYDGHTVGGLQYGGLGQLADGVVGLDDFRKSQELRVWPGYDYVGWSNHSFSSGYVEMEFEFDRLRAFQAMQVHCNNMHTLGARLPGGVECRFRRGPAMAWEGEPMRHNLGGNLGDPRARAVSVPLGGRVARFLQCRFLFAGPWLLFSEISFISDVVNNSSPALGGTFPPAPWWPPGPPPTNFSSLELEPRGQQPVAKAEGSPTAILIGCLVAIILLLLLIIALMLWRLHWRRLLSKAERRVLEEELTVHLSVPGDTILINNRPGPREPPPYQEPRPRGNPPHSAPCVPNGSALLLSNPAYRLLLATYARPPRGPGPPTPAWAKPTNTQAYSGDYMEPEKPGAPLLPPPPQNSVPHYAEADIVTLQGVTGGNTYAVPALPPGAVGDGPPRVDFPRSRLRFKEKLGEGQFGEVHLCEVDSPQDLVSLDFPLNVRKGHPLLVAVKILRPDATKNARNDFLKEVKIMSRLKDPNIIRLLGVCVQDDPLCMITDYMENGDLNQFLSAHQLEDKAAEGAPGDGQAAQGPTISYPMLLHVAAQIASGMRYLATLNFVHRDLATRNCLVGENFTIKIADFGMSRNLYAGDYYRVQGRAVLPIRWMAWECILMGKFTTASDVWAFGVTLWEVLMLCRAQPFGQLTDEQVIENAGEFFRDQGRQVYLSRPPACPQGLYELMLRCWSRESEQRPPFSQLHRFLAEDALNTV

SMILES | Ki (DDR2) [nM] | Ki (DDR1) [nM]
COc1ccc(C(=O)Nc2cncc(C(F)(F)F)c2)cc1NC1CN(c2cnn3ccncc23)C1 [Example 183, 4-methoxy-3-((1-(pyrazolo[1,5-a]pyrazin-3-yl)azetidin-3-yl)amino)-N-(5-(trifluoromethyl)pyridin-3-yl)benzamide] | 5 to 25 | < 5
Cc1ccc(C(=O)Nc2cncc(OC(F)(F)F)c2)cc1OC1CN(c2cnn3ccncc23)C1 [Example 157, 4-methyl-3-((1-(pyrazolo[1,5-a]pyrazin-3-yl)azetidin-3-yl)oxy)-N-(5-(trifluoromethoxy)pyridin-3-yl)benzamide] | < 5 | < 5
Cc1ccc(C(=O)Nc2cncc(C(F)(F)F)c2)cc1OC1CN(c2cnc3cnccn23)C1 [Example 146, 3-((1-(imidazo[1,2-a]pyrazin-3-yl)azetidin-3-yl)oxy)-4-methyl-N-(5-(trifluoromethyl)pyridin-3-yl)benzamide] | < 5 | < 5
COc1ccc(OC(F)(F)F)cc1NC(=O)c1ccc(C)c(OC2CN(c3cnn4ccncc34)C2)c1 [Example 158, N-(2-methoxy-5-(trifluoromethoxy)phenyl)-4-methyl-3-((1-(pyrazolo[1,5-a]pyrazin-3-yl)azetidin-3-yl)oxy)benzamide] | 5 to 25 | < 5
Cc1ccc(OC(F)(F)F)cc1NC(=O)c1ccc(C)c(OC2CN(c3cnn4ccncc34)C2)c1 [Example 159, 4-methyl-N-(2-methyl-5-(trifluoromethoxy)phenyl)-3-((1-(pyrazolo[1,5-a]pyrazin-3-yl)azetidin-3-yl)oxy)benzamide] | 5 to 25 | < 5
Cc1ccc(C(=O)Nc2cncc(C(F)(F)F)c2)cc1OC1CN(c2cnn3ccc(N4CCC(CO)CC4)nc23)C1 [Example 180, 3-((1-(5-(4-(hydroxymethyl)piperidin-1-yl)pyrazolo[1,5-a]pyrimidin-3-yl)azetidin-3-yl)oxy)-4-methyl-N-(5-(trifluoromethyl)pyridin-3-yl)benzamide] | > 100 | 5 to 25
Cc1ccc(C(=O)Nc2cc(C(F)(F)F)ccc2Cl)cc1OC1CN(c2cnn3ccncc23)C1 [Example 160, N-(2-chloro-5-(trifluoromethyl)phenyl)-4-methyl-3-((1-(pyrazolo[1,5-a]pyrazin-3-yl)azetidin-3-yl)oxy)benzamide] | 5 to 25 | < 5
Cc1ccc(C(=O)Nc2cncc(C(F)(F)F)c2)cc1OC1CN(c2cnn3ccc(N4CCOCC4)nc23)C1 [Example 170, 4-methyl-3-((1-(5-morpholinopyrazolo[1,5-a]pyrimidin-3-yl)azetidin-3-yl)oxy)-N-(5-(trifluoromethyl)pyridin-3-yl)benzamide] | 5 to 25 | < 5
Cc1ccc(C(=O)Nc2cc(C(C)(C)C)on2)cc1NC1CN(c2cnn3ccncc23)C1 [Example 150, N-(5-(tert-butyl)isoxazol-3-yl)-4-methyl-3-((1-(pyrazolo[1,5-a]pyrazin-3-yl)azetidin-3-yl)amino)benzamide] | 25 to 100 | 5 to 25
Cc1ccc(C(=O)Nc2cc(C(C)(C)C)nn2C)cc1OC1CN(c2cnn3ccncc23)C1 [Example 163, N-(3-(tert-butyl)-1-methyl-1H-pyrazol-5-yl)-4-methyl-3-((1-(pyrazolo[1,5-a]pyrazin-3-yl)azetidin-3-yl)oxy)benzamide] | 5 to 25 | 5 to 25
Cc1ccc(C(=O)Nc2cncc(C(F)(F)F)c2)cc1OC1CN(c2cncc(C(F)F)c2)C1 [Example 165, 3-((1-(5-(difluoromethyl)pyridin-3-yl)azetidin-3-yl)oxy)-4-methyl-N-(5-(trifluoromethyl)pyridin-3-yl)benzamide] | 5 to 25 | < 5
O=C(Nc1cncc(C(F)(F)F)c1)c1ccc(OC(F)F)c(OC2CN(c3cnn4ccncc34)C2)c1 [Example 182, 4-(difluoromethoxy)-3-((1-(pyrazolo[1,5-a]pyrazin-3-yl)azetidin-3-yl)oxy)-N-(5-(trifluoromethyl)pyridin-3-yl)benzamide] | < 5 | < 5
Cc1ccc(C(=O)Nc2cncc(C(F)(F)F)c2)cc1OC1CN(c2cnccc2C#N)C1 [Example 174, 3-((1-(4-cyanopyridin-3-yl)azetidin-3-yl)oxy)-4-methyl-N-(5-(trifluoromethyl)pyridin-3-yl)benzamide] | < 5 | < 5
Cc1ccc(C(=O)Nc2cncc(C(F)(F)F)c2)cc1OC1CN(c2cnn3cccnc23)C1 [Example 142, 4-methyl-3-((1-(pyrazolo[1,5-a]pyrimidin-3-yl)azetidin-3-yl)oxy)-N-(5-(trifluoromethyl)pyridin-3-yl)benzamide] | 5 to 25 | < 5
Cc1ccc(C(=O)Nc2cncc(C(F)(F)F)c2)cc1OC1CN(c2cncc(-c3cnn(C)c3)c2)C1 [Example 143, 4-methyl-3-((1-(5-(1-methyl-1H-pyrazol-4-yl)pyridin-3-yl)azetidin-3-yl)oxy)-N-(5-(trifluoromethyl)pyridin-3-yl)benzamide] | < 5 | < 5
Cc1ccc(C(=O)Nc2cncc(C(F)(F)F)c2)cc1NC1CN(c2cnn3cccnc23)C1 [Example 148, 4-methyl-3-((1-(pyrazolo[1,5-a]pyrimidin-3-yl)azetidin-3-yl)amino)-N-(5-(trifluoromethyl)pyridin-3-yl)benzamide] | 5 to 25 | 5 to 25
Cc1ccc(C(=O)Nc2cncc(C(F)(F)F)c2)cc1OC1CN(c2ncnc3[nH]cc(C#N)c23)C1 [Example 173, 3-((1-(5-cyano-7H-pyrrolo[2,3-d]pyrimidin-4-yl)azetidin-3-yl)oxy)-4-methyl-N-(5-(trifluoromethyl)pyridin-3-yl)benzamide] | 5 to 25 | < 5
CC(=O)Nc1cncc(N2CC(Oc3cc(C(=O)Nc4cncc(C(F)(F)F)c4)ccc3C)C2)c1 [Example 145, 3-((1-(5-acetamidopyridin-3-yl)azetidin-3-yl)oxy)-4-methyl-N-(5-(trifluoromethyl)pyridin-3-yl)benzamide] | < 5 | < 5
Cc1ccc(C(=O)Nc2cncc(C(F)(F)F)c2)cc1OC1CN(c2cnc3ccccn23)C1 [Example 137, 3-((1-(imidazo[1,2-a]pyridin-3-yl)azetidin-3-yl)oxy)-4-methyl-N-(5-(trifluoromethyl)pyridin-3-yl)benzamide] | < 5 | < 5
Cc1ccc(C(=O)Nc2cncc(C(F)(F)F)c2)cc1C(C)C1CN(c2cnn3ccncc23)C1 (stereo not drawn) [Example 172, 4-methyl-3-(1-(1-(pyrazolo[1,5-a]pyrazin-3-yl)azetidin-3-yl)ethyl)-N-(5-(trifluoromethyl)pyridin-3-yl)benzamide] | 5 to 25 | < 5
CCc1cc(NC(=O)c2ccc(C)c(OC3CN(c4cnn5ccncc45)C3)c2)no1 [Example 152, N-(5-ethylisoxazol-3-yl)-4-methyl-3-((1-(pyrazolo[1,5-a]pyrazin-3-yl)azetidin-3-yl)oxy)benzamide] | 25 to 100 | 5 to 25
Cc1ccc(C(=O)Nc2cncc(C(F)(F)F)c2)cc1NC1CN(c2cncnc2)C1 [Example 134, 4-methyl-3-((1-(pyrimidin-5-yl)azetidin-3-yl)amino)-N-(5-(trifluoromethyl)pyridin-3-yl)benzamide] | 25 to 100 | 5 to 25
Cc1ccc(C(=O)Nc2cncc(C(F)(F)F)c2)cc1CC1CN(c2cnn3ccncc23)C1 [Example 171, 4-methyl-3-((1-(pyrazolo[1,5-a]pyrazin-3-yl)azetidin-3-yl)methyl)-N-(5-(trifluoromethyl)pyridin-3-yl)benzamide] | < 5 | < 5
Cc1ccc(C(=O)Nc2cc(C(C)(C)C)n(C)n2)cc1OC1CN(c2cnn3ccncc23)C1 [Example 154, N-(5-(tert-butyl)-1-methyl-1H-pyrazol-3-yl)-4-methyl-3-((1-(pyrazolo[1,5-a]pyrazin-3-yl)azetidin-3-yl)oxy)benzamide] | < 5 | < 5
